Assay results from PubChem BioAssay (NCI).
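Method: 48-hour compound exposure of cells in 96-well plates, five concentrations, linear interpolation of endpoints. The concentration for 50% growth inhibition is given as GI50. Definition used: TGI = concentration required for complete inhibition of growth.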

Legend:
Test in all cases: DTP human tumour cell line panel, 48 h
[1] = system: 786-0 renal
[2] = system: A498 renal
[3] = system: A549 NSCLC
[4] = system: ACHN renal
[5] = system: BT-549 breast
[6] = system: CAKI-1 renal
[7] = system: CCRF-CEM leukemia
[8] = system: COLO 205 colon
[9] = system: DU-145 prostate
[10] = system: EKVX NSCLC
[11] = system: HCC-2998 colon
[12] = system: HCT-116 colon
[13] = system: HCT-15 colon
[14] = system: HL-60(TB) leukemia
[15] = system: HOP-62 NSCLC
[16] = system: HOP-92 NSCLC
[17] = system: HS 578T breast
[18] = system: HT29 colon
[19] = system: IGROV1 ovarian
[20] = system: K-562 leukemia
[21] = system: KM12 colon
[22] = system: M14 melanoma
[23] = system: MALME-3M melanoma
[24] = system: MCF7 breast
[25] = system: MDA-MB-231 breast
[26] = system: MDA-MB-435
[27] = system: MOLT-4 leukemia
[28] = system: NCI-H226 lung
[29] = system: NCI-H23 lung
[30] = system: NCI-H460 lung
[31] = system: NCI-H522 lung
[32] = system: NCI/ADR-RES ovarian
[33] = system: OVCAR-3 ovarian
[34] = system: OVCAR-5 ovarian
[35] = system: OVCAR-8 ovarian
[36] = system: PC-3 prostate
[37] = system: RXF 393 renal
[38] = system: SF-268 CNS
[39] = system: SF-295 CNS
[40] = system: SF-539 CNS
[41] = system: SK-MEL-2 melanoma
[42] = system: SK-MEL-28 melanoma
[43] = system: SK-MEL-5 melanoma
[44] = system: SK-OV-3 ovarian
[45] = system: SN12C renal
[46] = system: SNB-19 CNS
[47] = system: SNB-75 CNS
[48] = system: SW-620 colon
[49] = system: T-47D breast
[50] = system: TK-10 renal
[51] = system: U251 CNS
[52] = system: UACC-257 melanoma
[53] = system: UACC-62 melanoma
[54] = system: UO-31 renal

With COC(=O)c1ccc(NC2=C/C(=N/S(=O)(=O)c3ccc(C(=O)O)cc3)c3ccccc3C2=O)cc1 the GI50 [1] was 10.9 µM, the TGI [1] was 58.4 µM and the GI50 [2] was 22.9 µM. The TGI [2] was 42.4 µM, the GI50 [3] was 29.8 µM and the TGI [3] was > 100 µM. The GI50 [4] was 1.88 µM, the TGI [4] was 4.19 µM and the GI50 [5] was 15 µM. The TGI [5] was 32.6 µM, the GI50 [6] was 10 µM and the TGI [6] was 23.1 µM. For the same compound, the GI50 [7] was 3.21 µM, the TGI [7] was > 100 µM and the GI50 [8] was 17.7 µM. The TGI [8] was 38.1 µM, the GI50 [9] was 11.7 µM and the TGI [9] was 24.7 µM. The GI50 [10] was 2.1 µM, the TGI [10] was 5.83 µM and the GI50 [11] was 10.4 µM. It also gave a TGI [11] of 27 µM, a GI50 [12] of 2.81 µM and a TGI [12] of 10.2 µM. The GI50 [13] was 11 µM, the TGI [13] was 35.5 µM and the GI50 [14] was 2.55 µM. It also gave a TGI [14] of 6.52 µM, a GI50 [15] of 17.3 µM and a TGI [15] of 38.3 µM. It also gave a GI50 [16] of 3.71 µM, a TGI [16] of 15.6 µM and a GI50 [17] of 3.36 µM. The TGI [17] was 48 µM, the GI50 [18] was 21.3 µM and the TGI [18] was 47.4 µM. For the same compound, the GI50 [19] was 4.92 µM, the TGI [19] was 20.8 µM and the GI50 [20] was 3.19 µM. The TGI [20] was > 100 µM, the GI50 [21] was 10.7 µM and the TGI [21] was 25.3 µM. For the same compound, the GI50 [22] was 5.7 µM, the TGI [22] was 23.9 µM and the GI50 [23] was 1.89 µM. The TGI [23] was 3.52 µM, the GI50 [24] was 1.89 µM and the TGI [24] was 4.4 µM. For the same compound, the GI50 [25] was 2.51 µM, the TGI [25] was 8.1 µM and the GI50 [26] was 1.95 µM. The TGI [26] was 3.67 µM, the GI50 [27] was 1.74 µM and the TGI [27] was 4.47 µM. For the same compound, the GI50 [28] was 15.2 µM, the TGI [28] was 34.6 µM and the GI50 [29] was 3.18 µM. It also gave a TGI [29] of 18.2 µM, a GI50 [30] of 20.6 µM and a TGI [30] of 50.8 µM. For the same compound, the GI50 [31] was 1.92 µM, the TGI [31] was 4.76 µM and the GI50 [32] was 3.06 µM. It also gave a TGI [32] of 11.8 µM, a GI50 [33] of 2.17 µM and a TGI [33] of 5.94 µM. The GI50 [34] was 14 µM, the TGI [34] was 33.4 µM and the GI50 [35] was 3.2 µM. For the same compound, the TGI [35] was 46.2 µM, the GI50 [36] was 3.4 µM and the TGI [36] was 25.3 µM. For the same compound, the GI50 [37] was 8.1 µM, the TGI [37] was 22.4 µM and the GI50 [38] was 6.33 µM. It also gave a TGI [38] of 37.5 µM, a GI50 [39] of 11.7 µM and a TGI [39] of 26.9 µM. It also gave a GI50 [40] of 1.79 µM, a TGI [40] of 3.38 µM and a GI50 [41] of 2.35 µM. It also gave a TGI [41] of 6.51 µM, a GI50 [42] of 2.46 µM and a TGI [42] of 5.89 µM. For the same compound, the GI50 [43] was 3.18 µM, the TGI [43] was 10.1 µM and the GI50 [44] was 21 µM. For the same compound, the TGI [44] was 44.5 µM, the GI50 [45] was 2.13 µM and the TGI [45] was 5.15 µM. It also gave a GI50 [46] of 16.9 µM, a TGI [46] of 33.2 µM and a GI50 [47] of 2.1 µM. For the same compound, the TGI [47] was 10.1 µM, the GI50 [48] was 2.78 µM and the TGI [48] was > 100 µM. The GI50 [49] was 3.19 µM, the TGI [49] was 26.8 µM and the GI50 [50] was 25.2 µM. It also gave a TGI [50] of 42.8 µM, a GI50 [51] of 4.01 µM and a TGI [51] of 28.8 µM. The GI50 [52] was 2.06 µM, the TGI [52] was 4.6 µM and the GI50 [53] was 2.08 µM. For the same compound, the TGI [53] was 4.55 µM, the GI50 [54] was 2.94 µM and the TGI [54] was 15.3 µM.
